These results are taken from patent publication US20260356849A1, “COMPOUNDS AND METHODS FOR TREATING CANCERS” (CEDARS-SINAI MEDICAL CENTER, priority 2022, published 2026).

Assay type in all cases: cell-based
For one series, the system named is HepG2 cells. Description: MTT assay in HepG2 cells. The settings on record: Homo sapiens. As for the experimental part:
(§1) The inventors identified nine inhibitors and perfomed an EdU assay after treating non-malignant (HEK293, AML12) and malignant (HepG2, MzChA-1, HT-29, RKO) cells with varying concentrations of GIT1 inhibitor for 24 hours (results are mean±SE from 3 independent experiments done in duplicates, *p<0.05 vs. DMSO). An MTT assay was also performed after treating primary human and mouse hepatocytes and liver and colon cancer cells with varying concentrations of GIT1 inhibitor for 24 hours (results are mean±SE from 3 independent experiments done in duplicates, *p<0.05 vs. DMSO). […] Percoll may be used to remove dead human hepatocytes.
(Tetrazolium dyes change colour on reduction, which living cells bring about.)

In the next series the test system is mouse hepatocytes. Description: Toxicity in mouse hepatocytes. The note with it: data not shown. As for the experimental part:
as §1

The test system of a further series is human hepatocytes. Description: Toxicity in human hepatocytes. The settings on record: data not shown. The method, then: as §1
The subject of another series is RKO cells. Description: MTT assay in RKO cells. The settings on record: Homo sapiens. As for the experimental part:
as §1

Some results are limits rather than exact numbers.

By IC50 is commonly meant the point on the concentration scale where inhibition reaches its midpoint. Regarding `CC1(C)Cc2nc3sc4c(=O)n(CC(=O)N5CCOCC5)cnc4c3cc2CO1` [Compound C33], the IC50 is 0.83 µM with HepG2 cells and 0.98 µM with RKO cells. In addition, the “toxicity in mouse hepatocytes” value in the series with mouse hepatocytes is given as “no toxicity”. Moreover, the “toxicity in human hepatocytes” value with human hepatocytes is “no toxicity”.

For the molecule `CC(=O)c1ccc(NC(=O)Cn2cnc3c(sc4nc5c(cc43)COC(C)(C)C5)c2=O)cc1` [Compound C38], the IC50 was above 50 µM in the series with HepG2 cells and above 25 µM in the series on RKO cells.

For `COc1cccc(NC(=O)Cn2cnc3c(sc4nc5c(cc43)COC(C)(C)C5)c2=O)c1` [Compound C39], the IC50 in the series with HepG2 cells was above 25 µM; in the series with RKO cells it was above 50 µM.
